Data taken from patent US10201546B2, “Quinolinyl modulators of RORγt” (Janssen Pharmaceutica NV, priority 2013, dated 2019).
Where a name gives a salt, the structure may show the parent alone. Read-outs that look alike come from different tables or passages of the source. Each block holds one molecule with its values, some of them ahead of it.

Assays:
[1] = tested on: IL-17 production by CD4+ T cells under conditions which favor Th17 differentiation; test: Human Th17 assay (IL-17 production by CD4 T cells); format: cell-based
[2] = molecular target: human RORγt LBD fused to the DNA binding domain of the GAL4 protein (Homo sapiens (Human), UniProt P51449); test: RORγt (LBD) reporter assay in HEK293T cells; format: cell-based; set-up: RORγt (LBD) Reporter Assay, % inhibition: dose or concentration left out as unconfirmed
Sequence of human RORγt LBD fused to the DNA binding domain of the GAL4 protein (P51449 258-518): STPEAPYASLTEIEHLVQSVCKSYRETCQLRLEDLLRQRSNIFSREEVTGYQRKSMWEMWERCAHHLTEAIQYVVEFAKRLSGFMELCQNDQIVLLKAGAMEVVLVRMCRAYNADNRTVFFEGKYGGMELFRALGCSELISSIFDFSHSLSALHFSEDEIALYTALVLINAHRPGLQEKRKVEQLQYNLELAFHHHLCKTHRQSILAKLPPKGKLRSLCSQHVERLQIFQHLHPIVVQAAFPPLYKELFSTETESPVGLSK

[3] = molecular target: human RORγt ligand binding domain (RORγt LBD) (Homo sapiens (Human), UniProt P51449); test: RORγt ThermoFluor assay (thermal shift, binding affinity Kd); conditions: read-out: ThermoFluor Assay, Kd
Sequence of human RORγt ligand binding domain (RORγt LBD) (P51449 other isoform, or with tags, fused parts or gaps): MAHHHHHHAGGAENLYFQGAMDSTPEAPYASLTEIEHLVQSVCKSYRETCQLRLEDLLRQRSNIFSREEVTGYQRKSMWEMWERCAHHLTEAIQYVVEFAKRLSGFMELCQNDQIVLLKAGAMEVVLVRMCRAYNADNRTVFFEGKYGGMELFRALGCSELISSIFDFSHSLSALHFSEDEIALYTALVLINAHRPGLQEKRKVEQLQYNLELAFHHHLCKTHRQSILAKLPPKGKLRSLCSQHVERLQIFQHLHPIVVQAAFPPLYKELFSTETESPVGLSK

- IC50 ([1]; Homo sapiens, CD4+ T): 370 nM
- RORγt (LBD) Reporter Assay, % inhibition [2]: 100%
Compound: COc1nc2ccc(C(O)(c3ccc(C)nc3C)c3cnnn3C)cc2c(Cl)c1CC(F)(F)F (single isomer, unassigned) [Example 143c, [4-Chloro-2-methoxy-3-(2,2,2-trifluoroethyl)quinolin-6-yl](2,6-dimethylpyridin-3-yl)(1-methyl-1H-1,2,3-triazol-5-yl)methanol]

Compound: Cc1nc(C)c(C(O)(c2ccc3nc(N4CCC4)c(OC(C)C)c(Cl)c3c2)c2cnnn2C)s1 (single isomer, unassigned) [Example 82c, [2-Azetidin-1-yl-4-chloro-3-(1-methylethoxy)quinolin-6-yl](2,4-dimethyl-1,3-thiazol-5-yl)(1-methyl-1H-1,2,3-triazol-5-yl)methanol]
- IC50 ([1]; Homo sapiens): 1.2 nM

- IC50 [1]: > 6000 nM
- Kd [3]: 9 nM
- IC50 [2]: > 6000 nM
- RORγt (LBD) Reporter Assay, % inhibition @ 6 μM [2]: 42%
Compound: COc1nc2ccc([C@@](O)(c3ccccc3)C3CCN(C(C)=O)CC3)cc2c(Cl)c1CC1CCOCC1 [Example 4b]

Compound: Cn1cncc1C(O)(c1ccc(C(F)(F)F)nc1)c1ccc2nc(N3CCC3)c(OCC(F)(F)F)c(Cl)c2c1 (single isomer, unassigned) [Example 89c, [2-Azetidin-1-yl-4-chloro-3-(2,2,2-trifluoroethoxy)quinolin-6-yl](1-methyl-1H-imidazol-5-yl)[6-(trifluoromethyl)pyridin-3-yl]methanol]
- IC50 ([1]; Homo sapiens): 79 nM

Compound: CCOc1c(OC)nc2ccc(C(O)(c3ccc(C(F)(F)F)nc3)c3cncn3C)cc2c1Cl (single isomer, unassigned) [Example 91c, (4-Chloro-3-ethoxy-2-methoxyquinolin-6-yl)(1-methyl-1H-imidazol-5-yl)[6-(trifluoromethyl)pyridin-3-yl]methanol]
- IC50 ([1]; Homo sapiens): 520 nM

Compound: COc1nc2ccc(C(O)(c3ccc(C(F)(F)F)nc3)c3cncn3C)cc2c(Cl)c1OCC1CC1 (single isomer, unassigned) [Example 88c, [4-Chloro-3-(cyclopropylmethoxy)-2-methoxyquinolin-6-yl](1-methyl-1H-imidazol-5-yl)[6-(trifluoromethyl)pyridin-3-yl]methanol]
- IC50 ([1]; Homo sapiens): 310 nM

- IC50 ([1]; Homo sapiens, CD4+ T): 7.6 nM
- RORγt (LBD) Reporter Assay, % inhibition @ 6 μM [2]: 100%
Compound: COc1nc2ccc(C(O)(c3ccnc(C(F)(F)F)c3)c3cncn3C)cc2c(Cl)c1CN1CCC(C(F)(F)F)CC1 (single isomer, unassigned) [Example 100c, (4-Chloro-2-methoxy-3-((4-(trifluoromethyl)piperidin-1-yl)methyl)quinolin-6-yl)(1-methyl-1H-imidazol-5-yl)(2-(trifluoromethyl)pyridin-4-yl)methanol]

Compound: COc1nc2ccc(C(O)(c3ccccc3)C3CCN(C(C)=O)CC3)cc2c(Cl)c1C1CCOCC1 (single isomer, unassigned) [Example 7b, 1-(4-((4-Chloro-2-methoxy-3-(tetrahydro-2H-pyran-4-yl)quinolin-6-yl)(hydroxy)(phenyl)methyl)piperidin-1-yl)ethanone]
- IC50 ([1]; Homo sapiens): 210 nM

Compound: CC(C)Oc1c(N2CCC2)nc2ccc(C(O)(c3ccc(Cl)cc3)c3cncn3C)cc2c1Cl (single isomer, unassigned) [Example 94c, [2-Azetidin-1-yl-4-chloro-3-(1-methylethoxy)quinolin-6-yl](4-chlorophenyl)(1-methyl-1H-imidazol-5-yl)methanol]
- IC50 ([1]; Homo sapiens): 380 nM

- IC50 [1]: 1.4 nM
- RORγt (LBD) Reporter Assay, % inhibition @ 6 μM [2]: 100%
Compound: COc1nc2ccc(C(O)(c3cnnn3C)c3cnc(C)n3C)cc2c(Cl)c1CN1CCC(C(F)(F)F)CC1 (single isomer, unassigned) [Example 106c, (4-Chloro-2-methoxy-3-((4-(trifluoromethyl)piperidin-1-yl)methyl)quinolin-6-yl)(1,2-dimethyl-1H-imidazol-5-yl)(1-methyl-1H-1,2,3-triazol-5-yl)methanol]

Compound: CCOC(=O)c1c(C(F)(F)F)nc2ccc(C(O)(c3cccnc3)c3cccnc3)cc2c1C(F)(F)F [Example 8, Ethyl 6-(hydroxydi(pyridin-3-yl)methyl)-2,4-bis(trifluoromethyl)quinoline-3-carboxylate.TFA]
- IC50 ([1]; Homo sapiens): 200 nM

- IC50 [1]: > 6000 nM
Compound: COc1nc2ccc(C(O)(c3cnc(C)n3C)C3CN(C(C)=O)C3)cc2c(Cl)c1CN1CCC(C(F)(F)F)CC1 (single isomer, unassigned) [Example 124b, 1-(3-((4-Chloro-2-methoxy-3-((4-(trifluoromethyl)piperidin-1-yl)methyl)quinolin-6-yl)(1,2-dimethyl-1H-imidazol-5-yl)(hydroxy)methyl)azetidin-1-yl)ethanone]
